Experimental data: patent US9914730B2, “Azaquinazoline inhibitors of Atypical protein Kinase C” (Ignyta, Inc., priority 2012, dated 2018)

The molecules below were run against T1, full-length human PKCι (Homo sapiens, UniProt P41743) (assay: PKCι IC50 IMAP assay, full-length PKCι at 150 μM ATP). Conditions: read-out: IC50 in IMAP assay against full length PKCi at 150 μM ATP.
T1 construct: Recombinant, full-length human PKCι expressed in Sf21 insect cells is also commercially available; purchased; host or cells: Sf21 insect cells
T1 sequence (P41743 1-596): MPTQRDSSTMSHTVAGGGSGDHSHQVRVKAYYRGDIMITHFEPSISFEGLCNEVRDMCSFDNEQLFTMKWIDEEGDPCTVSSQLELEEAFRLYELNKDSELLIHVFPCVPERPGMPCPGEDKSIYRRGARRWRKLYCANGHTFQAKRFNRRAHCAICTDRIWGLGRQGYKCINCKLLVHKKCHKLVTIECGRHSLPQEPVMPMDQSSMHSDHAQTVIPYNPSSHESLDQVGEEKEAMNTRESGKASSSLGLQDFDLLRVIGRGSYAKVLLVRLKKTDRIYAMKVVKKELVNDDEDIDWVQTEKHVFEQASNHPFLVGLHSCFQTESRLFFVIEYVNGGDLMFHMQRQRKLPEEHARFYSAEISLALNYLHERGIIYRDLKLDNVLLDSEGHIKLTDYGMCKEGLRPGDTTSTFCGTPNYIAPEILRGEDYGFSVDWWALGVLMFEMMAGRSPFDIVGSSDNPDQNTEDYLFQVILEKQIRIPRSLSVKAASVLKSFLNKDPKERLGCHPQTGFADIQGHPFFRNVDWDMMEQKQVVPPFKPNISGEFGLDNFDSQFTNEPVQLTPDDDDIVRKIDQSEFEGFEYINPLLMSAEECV
Format: biochemical
Source text: Assays are based on the ability of PKCι to phosphorylate a commercially available peptide substrate in vitro. The peptide substrate is FAM-PKCε pseudopeptide derived peptide, and comprises the amino acid sequence 5FAM-[…]-NH2. Recombinant, full-length human PKCι expressed in Sf21 insect cells is also commercially available. Recombinant, kinase-domain human PKCι is expressed and purified in-house.
The procedure below explains how dose response curves for inhibitors of PKCι are obtained. The screen described is for a 384 well format but the assay can be adapted to 1536 or other formats as required.
Compounds to be tested are dissolved in 100% DMSO. Compounds are diluted as required to give a final concentration of 4% DMSO (v/v) in the assay. 1 μl is plated into 384 well black low-binding flat bottomed assay plates which are used immediately. Dilutions and additions of compound to assay plates are carried out using Matrix WellMate® and Matrix PlateMate® Plus liquid handling systems.
On the day of the screen PKCι/substrate working solution, and ATP working solution, are prepared in buffer containing 20 mM tris-HCl pH7.5, 10 mM MgCl2, 0.01% Triton X100, 250 μM EGTA and 1 mM DTT. The final concentration of PKCι used varies depending on the batch of protein but is typically 15 pM. The final concentration of peptide substrate in the assay is 100 nM. ATP is used at a final concentration of 150 μM or 25 μM in the assays containing full-length or kinase-domain PKCι respectively, which corresponds to five times or equal to the KM^APP for ATP for each enzyme, respectively. The final buffer concentration in the assay is 18 mM tris-HCl pH7.5, 9 mM MgCl2, 0.009% Triton X100, 225 μM EGTA and 0.9 mM DTT. Relevant controls are included, namely no compound and no enzyme. 5 μl PKCι/substrate working solution at 30 pM and 200 nM, respectively, is added to the wells, followed by 4 μl ATP working solution at 375 μM or 62.5 μM for full-length or kinase-domain PKCι respectively, using a 16 channel Matrix pipette. The reaction is allowed to incubate for 60 minutes at room temperature, before the reaction is stopped and developed by the addition of 20 μl IMAP™ development reagent (Molecular Devices). IMAP development reagent consists of 0.25% (v/v) IMAP progressive binding reagent, 17% (v/v) IMAP progressive binding buffer A and 3% (v/v) IMAP progressive binding buffer B. The plates are then incubated for 2 hours at room temperature before being read using an appropriate plate reader, for example a Molecular Devices HT Analyst or a BMG Pherastar. Plates are read using a fluorescence polarisation protocol with excitation at 485 nm and emission at 530 nm, and dichroic mirror at 505 nm.
Percentage inhibition values are calculated from fluorescence polarisation values, using the no compound and no enzyme control values as 0% and 100% inhibition, respectively. IC50 determination is performed with ExcelFit software (IDBS) using curve fit 205. Z′ factors are determined for each plate tested and are all above 0.5.

IC50 [nM] | Molecule
< 100 | 4-{5-(4-Cyano-pyridin-2-ylamino)-2-[2-(4-cyano-pyridin-2-ylamino)-pyridin-4-yl]-pyrido[3,4-d]pyrimidin-4-yl}-piperazine [Example 249]
< 100 | COc1cncc2nc(-c3ccncc3)nc(N3CCN[C@@H](C(O)c4ccc(F)cc4)C3)c12 (mixture of isomers) [Example 77, (4-fluorophenyl) [(2R)-4-[5-methoxy-2-(pyridin-4-yl)-pyrido[3,4-d]-pyrimidin-4-yl]-piperazin-2-yl]-methanol]
100 to 1000 | COc1cncc2nc(-c3ccnc(Nc4ccccc4)c3)nc(N3CC[C@@H](O)[C@H](O)C3)c12 (racemic) [Example 437, (±)-trans-1-[5-Methoxy-2-(2-phenylamino-pyridin-4-yl)-pyrido[3,4-d]pyrimidin-4-yl]-piperidine-3,4-diol]
< 100 | N#Cc1ccnc(Nc2cc(-c3nc(N4CCC(O)C(O)C4)c4c(C5CC5)cncc4n3)ccn2)c1 (racemic) [Example 485, (±)-2-{4-[5-Cyclopropyl-4-cis-3,4-dihydroxy-piperidin-1-yl)-pyrido[3,4-d]pyrimidin-2-yl]-pyridin-2-ylamino}-isonicotinonitrile]
< 100 | CN1CCN(c2cccc(Nc3cc(-c4nc(N5CC[C@H](O)[C@H](O)C5)c5c(C6CC6)cncc5n4)ccn3)c2)CC1 (racemic) [Example 602, (+/−)-(cis)-1-(5-Cyclopropyl-2-{2-[3-(4-methyl-piperazin-1-yl)-phenylamino]-pyridin-4-yl}-pyrido[3,4-d]pyrimidin-4-yl)-piperidine-3,4-diol]
100 to 1000 | O[C@@H]1CN(c2nc(-c3ccnc(Nc4ccccc4)c3)nc3cncc(C4CC4)c23)CC[C@@H]1O (racemic) [Example 675, (+/−)-(cis)-1-[5-Cyclopropyl-2-(2-phenylamino-pyridin-4-yl)-pyrido[3,4-d]pyrimidin-4-yl]-piperidine-3,4-diol]
100 to 1000 | O[C@@H]1CCN(c2nc(-c3ccnc(Nc4ccccc4)c3)nc3cncc(C4CC4)c23)C[C@H]1O (racemic) [Example 676, (+/−)-(trans)-1-[5-Cyclopropyl-2-(2-phenylamino-pyridin-4-yl)-pyrido[3,4-d]pyrimidin-4-yl]-piperidine-3,4-diol]
100 to 1000 | N#Cc1ccnc(Nc2cc(-c3nc(N4CC[C@@H](O)[C@H](O)C4)c4c(C5CC5)cncc4n3)ccn2)c1 (racemic) [Example 677, (+/−)-2-{4-[5-Cyclopropyl-4-((trans)-3,4-dihydroxy-piperidin-1-yl)-pyrido[3,4-d]pyrimidin-2-yl]-pyridin-2-ylamino}-isonicotinonitrile]
< 100 | CN1CCN(c2cccc(Nc3cc(-c4nc(N5CCC(O)C(O)C5)c5c(C6CC6)cncc5n4)ccn3)c2)CC1 (racemic) [Example 678, (+/−)-(trans)-1-(5-Cyclopropyl-2-{2-[3-(4-methyl-piperazin-1-yl)-phenylamino]-pyridin-4-yl}-pyrido[3,4d]pyrimidin-4-yl)-piperidine-3,4-diol]
< 100 | c1cc(-c2nc(N3CCNCC3)c3c(C4CC4)cncc3n2)cc(N[C@@H]2C[C@H]3CC[C@@H]2C3)n1 (racemic) [Example 695, (+/−)-(1RS,2RS,4SR)-Bicyclo[2.2.1]hept-2-yl-[4-(5-cyclopropyl-4-piperazin-1-yl-pyrido[3,4-d]pyrimidin-2-yl)-pyridin-2-yl]-amine]
100 to 1000 | O[C@@H]1CN(c2nc(-c3ccnc4[nH]c(C(F)(F)F)cc34)nc3cncc(C4CC4)c23)CC[C@@H]1O (racemic) [Example 1234, (+/−)-(cis)-1-[5-Cyclopropyl-2-(2-trifluoromethyl-1H-pyrrolo[2,3-b]pyridin-4-yl)-pyrido[3,4-d]pyrimidin-4-yl]-piperidine-3,4-diol]
100 to 1000 | O[C@@H]1CCN(c2nc(-c3ccnc4[nH]c(C(F)(F)F)cc34)nc3cncc(C4CC4)c23)C[C@H]1O (racemic) [Example 1235, (+/−)-(trans)-1-[5-Cyclopropyl-2-(2-trifluoromethyl-1H-pyrrolo[2,3-b]pyridin-4-yl)-pyrido[3,4-d]pyrimidin-4-yl]-piperidine-3,4-diol]
< 100 | O[C@@H]1CN(c2nc(-c3ccnc(Nc4cccc(N5CCOCC5)c4)c3)nc3cncc(C4CC4)c23)CC[C@@H]1O (racemic) [Example 2005, (+/−)-cis-1-{5-Cyclopropyl-2-[2-(3-morpholin-4-yl-phenylamino)-pyridin-4-yl]-pyrido[3,4-d]pyrimidin-4-yl}-piperidine-3,4-diol]
< 100 | c1cc(-c2nc(N3CCNCC3)c3c(C4CC4)cncc3n2)c2cc([C@H]3C[C@H]4CC[C@@H]3C4)[nH]c2n1 (racemic) [Example 2079, (±)-2-((endo)-2-Bicyclo[2.2.1]hept-2-yl-1H-pyrrolo[2,3-b]pyridin-4-yl)-5-cyclopropyl-4-piperazin-1-yl-pyrido[3,4-d]pyrimidine]
< 100 | c1cc(-c2nc(N3CCNCC3)c3c(C4CC4)cncc3n2)cc(N[C@@H]2C[C@H]3CC[C@@H]2O3)n1 (racemic) [Example 2093, (±)-exo-[4-(5-Cyclopropyl-4-piperazin-1-yl-pyrido[3,4-d]pyrimidin-2-yl)-pyridin-2-yl]--7-oxa-bicyclo[2.2.1]hept-2-yl-amine]
< 100 | c1cc(-c2nc(N3CCNCC3)c3c(C4CC4)cncc3n2)c2cc([C@@H]3C[C@H]4CC[C@@H]3O4)[nH]c2n1 (racemic) [Example 2121, (±)-exo-5-Cyclopropyl-2-[2-(7-oxa-bicyclo[2.2.1]hept-2-yl)-1H-pyrrolo[2,3-b]pyridin-4-yl]-4-piperazin-1-yl-pyrido[3,4-d]pyrimidine]
< 100 | c1cc(-c2nc(N3CCNCC3)c3c(C4CCC4)cncc3n2)c2cc([C@@H]3C[C@H]4CC[C@@H]3O4)[nH]c2n1 (racemic) [Example 2122, (±)-exo-5-Cyclobutyl-2-[2-(7-oxa-bicyclo[2.2.1]hept-2-yl)-1H-pyrrolo[2,3-b]pyridin-4-yl]-4-piperazin-1-yl-pyrido[3,4-d]pyrimidine]
< 100 | c1cc(-c2nc(N3CCNCC3)c3c(C4CCC4)cncc3n2)c2cc([C@H]3C[C@H]4CC[C@@H]3C4)[nH]c2n1 (racemic) [Example 2135, (±)-endo-2-(2-Bicyclo[2.2.1]hept-2-yl-1H-pyrroIo[2,3-b]pyridin-4-yl)-5-cyclobutyl-4-piperazin-1-yl-pyridor3,4-d]pyrimidine]
100 to 1000 | N#Cc1cccc(Nc2cc(-c3nc(N4CC[C@H](O)[C@H](O)C4)c4c(C5CC5)cncc4n3)ccn2)n1 (relative stereo) [Example 745, 6-{4-[5-Cyclopropyl-4-((cis)-3,4-dihydroxy-piperidin-1-yl)-pyrido[3,4-d]pyrimidin-2-yl]-pyridin-2-ylamino}-pyridine-2-carbonitrile]
< 100 | O[C@H]1c2ccccc2C[C@@H]1Nc1cc(-c2nc(N3CCNCC3)c3c(C4CC4)cncc3n2)ccn1 (relative stereo) [Example 2158, trans-2-[4-(5-Cyclopropyl-4-piperazin-1-yl-pyrido[3,4-d]pyrimidin-2-yl)-pyridin-2-ylamino]-indan-1-ol]
